Data reported in patent US20230391766A1, “1-(2-(4-CYCLOPROPYL-1H-1,2,3-TRIAZOL-1-YL)ACETYL)-4-HYDROXY-N-(BENZYL)PYRROLIDIN E-2-CARBOXAMIDE DERIVATIVES AS VHL INHIBITORS FOR THE TREATMENT OF ANEMIA AND CANCER” (Genentech, Inc., priority 2020, published 2023).

Assays:
VHL [1] = biological target: T1, VHL (Homo sapiens, UniProt P40337); assay: VHL nanoBRET (+ Digitonin); format: cell-based
T1 construct: expressed in transfected cells
Description: (§1) The VHL NanoBRET™ Target Engagement Assay analyzes the apparent affinity of test compounds for VHL in cells by competitive displacement of a VHL NanoBRET™ tracer reversibly bound to a NanoLuc® VHL fusion protein stably expressed in the cells.
(§2) 50 nL of control compound (10 mM; parental unlabeled VHL antagonist; see structure below) and 50 nL of DMSO (negative control) were dispensed into the appropriate control wells. DMSO was backfilled to a final volume of 50 nL as required. […] Max Signal control wells consisted of DMSO only treated wells. Minimum Signal control wells contained of 10 uM parental unlabeled VHL antagonist (control compound—see structure below). […] Background Signal control wells were prepared without tracer for background correction steps.
(§3) The raw BRET ratio values were calculated by dividing the acceptor emission value (610 nm) by the donor emission value (460 nm) for each sample. To correct for background, the BRET ratio in the absence of tracer (average of no-tracer control samples) was subtracted from the BRET ratio of each sample. Raw BRET units were converted to milliBRET units (mBU) by multiplying each raw BRET value by 1,000. The normalized NanoBRET™ signal was calculated relative to the Max Signal control wells (DMSO treated control wells) and the Minimum Signal control wells. Percentage inhibition was calculated relative to the Minimum Signal control and Maximum Signal control wells. IC50 values were derived by four parameter curve fitting using the Robust method.

VHL [2] = biological target: T1, VHL; assay: VHL HEK-293 BRET Assay (VHL NanoBRET Target Engagement Assay); format: cell-based; details: for IC50: HEK 293 RT VHL-NanoLuc stable cells, 1 uM tracer, 2 hours, geometric mean where more than one measurement, read-out: VHL binding in cells (HEK293 nanoBRET); for Ratio cell permeability shift: ratio not defined
Description: as §1, §2, §3

T1 sequence (P40337 whole entry): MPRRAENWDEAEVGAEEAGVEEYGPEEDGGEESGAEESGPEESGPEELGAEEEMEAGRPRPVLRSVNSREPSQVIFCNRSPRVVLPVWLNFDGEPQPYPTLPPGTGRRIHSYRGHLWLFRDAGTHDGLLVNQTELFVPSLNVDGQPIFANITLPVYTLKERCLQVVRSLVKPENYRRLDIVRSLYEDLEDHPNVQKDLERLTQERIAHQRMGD

EC50 (VHL [1])	IC50 (VHL [2])	Ratio cell permeability shift (VHL [2])	SMILES
0.11 µM	0.08 µM	0.74	Cc1ncsc1-c1ccc([C@@H](NC(=O)[C@@H]2C[C@@H](O)CN2C(=O)[C@@H](n2cc(C3CC3)nn2)C(C)(C)C)C(F)(F)F)cc1 [Example S40, (2S,4R)-1-((S)-2-(4-cyclopropyl-1H-1,2,3-triazol-1-yl)-3,3-dimethylbutanoyl)-4-hydroxy-N—((R)-2,2,2-trifluoro-1-(4-(4-methylthiazol-5-yl)phenyl)ethyl)pyrrolidine-2-carboxamide]
0.01 µM	–	0.67	CCC(C)(C)[C@@H](C(=O)N1C[C@H](O)C[C@H]1C(=O)N[C@@H](C)c1ccc(-c2scnc2C)cc1)n1cc(C2CC2)nn1 [Example S21, (2S,4R)-1-((S)-2-(4-cyclopropyl-1H-1,2,3-triazol-1-yl)-3,3-dimethylpentanoyl)-4-hydroxy-N—((S)-1-(4-(4-methylthiazol-5-yl)phenyl)ethyl)pyrrolidine-2-carboxamide]
0.01 µM	0.01 µM	1.04	Cc1ncsc1-c1ccc(CNC(=O)[C@@H]2C[C@@H](O)CN2C(=O)[C@@H](n2cc(C3(C)CC3)nn2)C(C)(C)C)cc1 [Example S29, (2S,4R)-1-((S)-3,3-dimethyl-2-(4-(1-methylcyclopropyl)-1H-1,2,3-triazol-1-yl)butanoyl)-4-hydroxy-N-(4-(4-methylthiazol-5-yl)benzyl)pyrrolidine-2-carboxamide]
0.02 µM	0.02 µM	1.15	C#CC1(c2cn([C@H](C(=O)N3C[C@H](O)C[C@H]3C(=O)NCc3ccc(-c4scnc4C)cc3)C(C)(C)C)nn2)CC1 [Compound 30, (2S,4R)-1-((S)-2-(4-(1-ethynylcyclopropyl)-1H-1,2,3-triazol-1-yl)-3,3-dimethylbutanoyl)-4-hydroxy-N-(4-(4-methylthiazol-5-yl)benzyl)pyrrolidine-2-carboxamide]
0.17 µM	0.13 µM	0.77	CC[C@H](C)[C@@H](C(=O)N1C[C@H](O)C[C@H]1C(=O)N[C@H](Cc1ccc(-c2ccccc2)cc1)C(N)=O)n1cc(C2CC2)nn1 [Example S5, (2S,4R)—N—((R)-3-([1,1′-biphenyl]-4-yl)-1-amino-1-oxopropan-2-yl)-1-((2S,3S)-2-(4-cyclopropyl-1H-1,2,3-triazol-1-yl)-3-methylpentanoyl)-4-hydroxypyrrolidine-2-carboxamide]
0.23 µM	0.2 µM	0.86	Cc1ncsc1-c1ccc2c(c1)CCCC[C@@H]2NC(=O)[C@@H]1C[C@@H](O)CN1C(=O)[C@@H](n1cc(C2CC2)nn1)C(C)(C)C [Example S45, (2S,4R)-1-((S)-2-(4-cyclopropyl-1H-1,2,3-triazol-1-yl)-3,3-dimethylbutanoyl)-4-hydroxy-N—((S)-2-(4-methylthiazol-5-yl)-6,7,8,9-tetrahydro-5H-benzo[7]annulen-5-yl)pyrrolidine-2-carboxamide]
0.22 µM	2.27 µM	10.22	CC(=O)NCC1(c2cn([C@H](C(=O)N3C[C@H](O)C[C@H]3C(=O)N[C@H](Cc3ccc(-c4ccccc4)cc3)C(N)=O)C(C)(C)C)nn2)CC1 [Example S13, (2S,4R)—N—((R)-3-([1,1′-biphenyl]-4-yl)-1-amino-1-oxopropan-2-yl)-1-((S)-2-(4-(1-(acetamidomethyl)cyclopropyl)-1H-1,2,3-triazol-1-yl)-3,3-dimethylbutanoyl)-4-hydroxypyrrolidine-2-carboxamide]
1.54 µM	1.1 µM	0.71	C[C@@H](NC(=O)[C@@H]1C[C@@H](O)CN1C(=O)[C@@H](n1cc(C2CC2)nn1)C(C)(C)C)c1ccc(-c2ccccc2F)cc1 [Example S42, (2S,4R)-1-((S)-2-(4-cyclopropyl-1H-1,2,3-triazol-1-yl)-3,3-dimethylbutanoyl)-N—((R)-1-(2′-fluoro-[1,1′-biphenyl]-4-yl)ethyl)-4-hydroxypyrrolidine-2-carboxamide]
0.16 µM	0.12 µM	0.73	NC(=O)[C@@H](Cc1ccc(-c2ccccc2)cc1)NC(=O)[C@@H]1C[C@@H](O)CN1C(=O)[C@@H](n1cc(C2CC2)nn1)C12CC3CC(CC(C3)C1)C2 [Example S8, (2S,4R)—N—((R)-3-([1,1′-biphenyl]-4-yl)-1-amino-1-oxopropan-2-yl)-1-((2S)-2-(adamantan-1-yl)-2-(4-cyclopropyl-1H-1,2,3-triazol-1-yl)acetyl)-4-hydroxypyrrolidine-2-carboxamide]
3.64 µM	5.4 µM	1.48	Cc1cnnn1[C@H](C(=O)N1C[C@H](O)C[C@H]1C(=O)N[C@H](Cc1ccc(-c2ccccc2)cc1)C(N)=O)C(C)C [Example S32, (2S,4R)—N—((R)-3-([1,1′-biphenyl]-4-yl)-1-amino-1-oxopropan-2-yl)-4-hydroxy-1-((S)-3-methyl-2-(5-methyl-1H-1,2,3-triazol-1-yl)butanoyl)pyrrolidine-2-carboxamide]
0.01 µM	0.01 µM	0.72	C[C@H](NC(=O)[C@@H]1C[C@@H](O)CN1C(=O)[C@@H](n1cc(C2CC2)nn1)C(C)(C)C)c1ccc(-c2ccccc2F)cc1 [Example S41, (2S,4R)-1-((S)-2-(4-cyclopropyl-1H-1,2,3-triazol-1-yl)-3,3-dimethylbutanoyl)-N—((S)-1-(2′-fluoro-[1,1′-biphenyl]-4-yl)ethyl)-4-hydroxypyrrolidine-2-carboxamide]
0.03 µM	0.03 µM	1.03	CC(C)(C)[C@@H](C(=O)N1C[C@H](O)C[C@H]1C(=O)NCc1ccc(-c2ccccc2F)cc1)n1cc(C2CC2)nn1 [Example S43, (2S,4R)-1-((S)-2-(4-cyclopropyl-1H-1,2,3-triazol-1-yl)-3,3-dimethylbutanoyl)-N-((2′-fluoro-[1,1′-biphenyl]-4-yl)methyl)-4-hydroxypyrrolidine-2-carboxamide]
24.5 µM	> 100 µM	–	CC(=O)NCC1(c2cn([C@@H](C(=O)N3C[C@H](O)C[C@H]3C(=O)N[C@H](Cc3ccc(-c4ccccc4)cc3)C(N)=O)C(C)(C)C)nn2)CC1 [Example S12, (2S,4R)—N—((R)-3-([1,1′-biphenyl]-4-yl)-1-amino-1-oxopropan-2-yl)-1-((R)-2-(4-(1-(acetamidomethyl)cyclopropyl)-1H-1,2,3-triazol-1-yl)-3,3-dimethylbutanoyl)-4-hydroxypyrrolidine-2-carboxamide]
0.17 µM	0.19 µM	1.12	CC(C)[C@@H](C(=O)N1C[C@H](O)C[C@H]1C(=O)N[C@H](Cc1ccc(-c2ccccc2)cc1)C(N)=O)n1cc(-c2cccs2)nn1 [Example S38, (2S,4R)—N—((R)-3-([1,1′-biphenyl]-4-yl)-1-amino-1-oxopropan-2-yl)-4-hydroxy-1-((S)-3-methyl-2-(4-(thiophen-2-yl)-1H-1,2,3-triazol-1-yl)butanoyl)pyrrolidine-2-carboxamide]
0.01 µM	–	0.54	Cc1ncsc1-c1ccc([C@H](C)NC(=O)[C@@H]2C[C@@H](O)CN2C(=O)[C@@H](n2cc(C3CC3)nn2)C23CC4CC(CC(C4)C2)C3)cc1 [Example S20, (2S,4R)-1-((2S)-2-(adamantan-1-yl)-2-(4-cyclopropyl-1H-1,2,3-triazol-1-yl)acetyl)-4-hydroxy-N—((S)-1-(4-(4-methylthiazol-5-yl)phenyl)ethyl)pyrrolidine-2-carboxamide]
0.16 µM	0.11 µM	0.68	C=CC(C)(C)[C@@H](C(=O)N1C[C@H](O)C[C@H]1C(=O)N[C@H](Cc1ccc(-c2ccccc2)cc1)C(N)=O)n1cc(C2CC2)nn1 [Example S7, (2S,4R)—N—((R)-3-([1,1′-biphenyl]-4-yl)-1-amino-1-oxopropan-2-yl)-1-((S)-2-(4-cyclopropyl-1H-1,2,3-triazol-1-yl)-3,3-dimethylpent-4-enoyl)-4-hydroxypyrrolidine-2-carboxamide]
0.61 µM	69.8 µM	115.18	CC(C)(C)[C@@H](C(=O)N1C[C@H](O)C[C@H]1C(=O)N[C@H](Cc1ccc(-c2ccccc2)cc1)C(N)=O)n1cc(C(=O)O)nn1 [Example S15, 1-((S)-1-((2S,4R)-2-(((R)-3-([1,1′-biphenyl]-4-yl)-1-amino-1-oxopropan-2-yl)carbamoyl)-4-hydroxypyrrolidin-1-yl)-3,3-dimethyl-1-oxobutan-2-yl)-1H-1,2,3-triazole-4-carboxylic acid]
0.04 µM	0.02 µM	0.42	Cc1ncsc1-c1ccc(C(C)NC(=O)[C@@H]2C[C@@H](O)CN2C(=O)[C@@H](n2cc(C3CC3)nn2)C23CC4CC(CC(C4)C2)C3)c(Cl)c1 (stereo partly drawn) [Example S23, (2S,4R)-1-((2S)-2-(adamantan-1-yl)-2-(4-cyclopropyl-1H-1,2,3-triazol-1-yl)acetyl)-N-(1-(2-chloro-4-(4-methylthiazol-5-yl)phenyl)ethyl)-4-hydroxypyrrolidine-2-carboxamide]
